Columns and labels:
[1] = test system: rat washed platelets (thromboxane A2-receptor antagonistic activity); test: Inhibitory Effect on Platelet Aggregation in Rat (washed platelets, collagen-induced, in vitro); type: cell-based, rat (Sprague-Dowley); details: 0.05 h, collagen inducer, 37° C., 3 minutes after inducer, Compounds Ia and Ib used as their sodium salts, read-out: Inhibition for Platelet Aggregation IC50
Experimental: (§1) From the abdominal artery of a male rat (Sprague-Dowley, 7 weeks old) was collected 10 ml of blood with a plastic syringe containing 1.5 ml of ACD (85 mM of sodium citrate, 70 mM of citric acid, 110 mM of glucose) and 20 μg of prostaglandin E1. The blood was placed in a plastic test tube, shaken moderately turning and centrifuged for 10 minutes at 160×g to give platelet rich plasma (PRP). To the prepared PRP was added apyrase (25 μg/ml) and the mixture was layered on 40% bovine serum albumin. The resulting mixture was centrifuged at 1200×g for 25 minutes. The suspension of the prepared platelet pellets in a small amount of a buffer (137 mM of NaCl, 2.7 mM of KCl, 1.0 mM MgCl2, 3.8 mM of NaH2 PO4, 3.8 mM of Hepes, 5.6 mM of glucose, 0.035% of bovine serum albumin, pH 7.35) was applied on 10 ml of Sepharose 2B column and eluted with such a buffer to prepare washed platelets.
(§2) The platelet aggregation reaction was measured by the aggregometer (NKK HEMA TRACER 1 MODEL PAT-6A.6M, Nikkou Bioscience).
In a measuring curvette was placed 245 μl of the washed platelets which concentration was adjusted to […] and set in the aggregometer. The adjusted washed platelets were stirred (1000 rpm) at 37° C. and 3.8 μl of 0.1M CaCl2 was added thereto. One minute later, 0.5 μl of a solution of a test compound in dimethylsulfoxide was added and 2 minutes later, 1 μl of collagen (Collagen reagent Horm®, HORMON-CHEMIE Munchen GMBH, final concentration […]) was added as an inducer for platelet aggregation. Platelet aggregation was monitored in terms of the increase and decrease in light transmission.
Concentration of 50% inhibition for platelet aggregation was calculated from the rate of aggregation. (The rate corresponds to light transmission of a sample which was measured at 3 minutes after adding the inducer for platelet aggregation, provided that light transmissions of the washed platelets and the buffer samples are taken as 0% and 100%, respectively.)

mice = test: Respiration inhibitory activity on intravenous injection to mice (index of partial agonistic activity); type: in vivo; details: intravenously injected to mice
rat platelet = test: Partial agonistic activity (activity to induce the shape change in rat platelet); type: cell-based; details: decrease in light transmission, rat washed platelets, 0.1M CaCl2, read-out: ED50 of partial agonistic activity (shape change)
Experimental: as §1, §2
Furthermore, partial agonistic activity (activity to induce the shape change in rat platelet) was determined according to the method used for the reaction of platelet aggregation. To the washed platelets was added 0.1M CaCl2 aqueous solution and 1 minute later, the decrease in light transmission caused by the test compounds was determined to estimate the activity.

Row | SMILES | IC50 [1] [nM] | partial agonistic activity by determination of respiration inhibitory activity (mice) | EC50 (rat platelet) [nM]
1 | O=C(CCC/C=C\C[C@H]1[C@@H]2CC[C@@H](C2)[C@@H]1NS(=O)(=O)c1ccccc1)NO [Ia, (1R,2S,3S,4S)-(5Z)-7-(3-phenylsulfonyl-aminobicyclo[2.2.1]hept-2-yl)-5-heptenohydroxamic acid] | 12 | substantially no partial agonistic activity | –
2 | O=C(CCC/C=C\C[C@H]1[C@@H]2CC[C@@H](C2)[C@@H]1NS(=O)(=O)c1ccc(O)cc1)NO [Ib, (1R,2S,3S,4S)-(5Z)-7-[3-(4-hydroxyphenylsulfonylamino)bicyclo[2.2.1]hept-2-yl]-5-heptenohydroxamic acid] | 10 | – | –
3 | O=C(CCC/C=C\[C@@H]1[C@H]2CC[C@H](C2)[C@H]1CNS(=O)(=O)c1ccc(Br)cc1)NO [Ic, (1S, 2S, 3R, 4R)-(5Z)-6-[3-(4-bromophenylsulfonylaminomethyl)bicyclo[2.2.1]hept-2-yl]-5-hexenohydroxamic acid] | 20 | – | –
4 | CONC(=O)CCC/C=C\C[C@H]1[C@@H]2CC[C@@H](C2)[C@@H]1NS(=O)(=O)c1ccccc1 [Ie, (1R, 2S, 3S, 4S)-(5Z)-0-methyl-7-[3-phenylsulfonylaminobicyclo[2.2.1]hept-2-yl]-5-heptenohydroxamic acid] | 60 | – | –
5 | CN(O)C(=O)CCC/C=C\C[C@H]1[C@@H]2CC[C@@H](C2)[C@@H]1NS(=O)(=O)c1ccccc1 [If, (1R, 2S, 3S, 4S)-(5Z) -N-methyl-7-(3-phenylsulfonylaminobicyclo[2.2.1]hept-2-yl)-5-heptenohydroxamic acid] | 20 | – | –
6 | Cc1ccc(S(=O)(=O)N[C@H]2[C@H]3CC[C@H](C3)[C@@H]2C/C=C\CCCC(=O)O)cc1 [Rf. Compd., reference compound] | 2 | – | 1
